Results published in US20210317086A1, “Tramadol HBR-Celecoxib Co-Crystal” (Mylan Laboratories Limited, priority 2018, published 2021).

Assay: Indicative stability: storage of the co-crystal at 40° C./75% RH and at 25° C./60% RH for 6 months, analysed by PXRD and HPLC
Assay type: physicochemical
Method: The PXRD measurements were carried out using PANalytical X′Pert PRO powder diffractometer equipped with goniometer of θ/θ configuration and X'Celerator detector. The Cu-anode X-ray tube was operated at 40 kV and 30 mA. The experiments were conducted over the […] of 2.0°-50.0°, 0.030° step size and 50 seconds step time.
In yet another embodiment, physical and chemical stability of 1:1 co-crystal of (rac)-tramadol.HBr-celecoxib sample was determined by storing the sample at 40° C./75% relative humidity (RH) and at 25° C./60% relative humidity (RH) for 6 months as mentioned in below Table 1. The samples were analyzed by PXRD and HPLC for final purity.

## 1:1 co-crystal of (rac)-tramadol hydrobromide and celecoxib
At 25° C./60% RH, 1 month
  HPLC purity (%): 99.88%
  PXRD: Stable
At 25° C./60% RH, 2 months
  HPLC purity (%): 99.89%
  PXRD: Stable
At 25° C./60% RH, 3 months
  HPLC purity (%): 99.87%
  PXRD: Stable
At 25° C./60% RH, 6 months
  HPLC purity (%): 99.87%
  PXRD: Stable
At 25° C./60% RH, Initial
  HPLC purity (%): 99.89%
  PXRD: Crystalline
At 40° C./75% RH, 1 month
  HPLC purity (%): 99.86%
  PXRD: Stable
At 40° C./75% RH, 2 months
  HPLC purity (%): 99.89%
  PXRD: Stable
At 40° C./75% RH, 3 months
  HPLC purity (%): 99.88%
  PXRD: Stable
At 40° C./75% RH, 6 months
  HPLC purity (%): 99.86%
  PXRD: Stable
At 40° C./75% RH, Initial
  HPLC purity (%): 99.89%
  PXRD: Crystalline
Conclusion from 6 months storage at 40° C./75% RH and 25° C./60% RH
  physical and chemical stability: physically and chemically stable
Stored for 6 months at 40° C./75% RH and at 25° C./60% RH
  change in HPLC purity and PXRD pattern on storage: no change in HPLC purity and PXRD pattern
